Patent US20120004282A1, “RNA Interference Mediated Inhibition of the Intercellular Adhesion Molecule 1 (ICAM-1) Gene Expression Using Short Interfering Nucleic Acid (siNA)” (Merck Sharp & Dohme Corp,, priority 2009, published 2012)
[invAb] = inverted abasic unit; m = 2'-O-methyl; r = 2'-OH (RNA); f = 2'-fluoro

Columns and labels:
ICAM-1 protein = assay: In situ ICAM-1 ELISA for surface ICAM-1 in INF-γ/TNF-α stimulated Calu-1 cells; type: cell-based, human; details: relative to UC3
Experimental: In a 96-well plate, 5,000 Calu-1 cells/well were seeded in 100 uL of complete growth media and incubated overnight at 37 C with 5% CO2. The cells were transfected with siNAs using RNAiMax (Invitrogen, Cat# 13778-150); final concentrations of siRNAs are 10 nM-0.0000097 nM. The amount of RNAiMax in each well is 0.3 uL. The siNAs were incubated for 6 hours. The medium was replaced with 95 uL of fresh complete growth medium and add 5 uL/well of INF-γ/TNF-α at 10 ng/ml final concentration. The cells were incubated for 24, 48, and 72 hours.
In situ ELISA for surface ICAM-1 was performed as follows. The cells were washed ×2 in PBS. The wells were pre-blocked with Super Block buffer (Pierce, Cat # 37535) for 1.5 hours at 37° C. The cells were washed ×3 with PBS. The primary monoclonal antibody (Abcam, clone MEM-111, Cat ab2213) was diluted at 1 in 3000 in Super Block buffer. 50 μl of primary antibody was added per well. The wells were shook gently at RT for 1 hour. The cells were washed ×3 with PBS. The rabbit polyclonal secondary antibody (Abcam, Cat ab6728)was diluted 1:1000 in Super Block buffer. 50 μl secondary antibody were added per well. The mixture was incubated at 37° C. for 1 hour. The cells were washed ×3 with PBS. 50 μl of TMB solution (Sigma, Cat# T-8665) was added per well and incubated in the dark for 10 minutes. 50 μl Stop solution was added. The absorbance was read at 450 nm.
The effects of siNAs on ICAM-1 protein level were compared to each other and to the effect of the universal control using a multiple comparison ANOVA test to obtain a 95% confidence interval.
Various siNAs were also evaluated for their potential to knock-down ICAM-1 protein using an ELISA assay. Six siNAs were tested in an ICAM-1 ELISA assay across a range of concentrations of siNAs. The absorbance of each sample was normalized to the average absorbance obtained from the wells that were not stimulated with INF-γ/TNF-α (n=6). These wells served as a background control (see Table 6).

OAS1 mRNA = assay: Endosomal TLR3 mediated immunostimulation, OAS1 mRNA increase in NHBE cells; type: cell-based, human; details: Up to 100 nM, siNA formulated with delivery vehicle
Experimental: A series of probes and primers were used for the detection of mRNA transcripts of ICAM-1, OAS1, and GAPDH (as control/normalisation) in the human cell lines. The assays were performed on an ABI 7900HT instrument according to the manufacturer's instructions.
With TaqMan data, critical threshold values (Ct) were converted to copy numbers corresponding to the particular gene analysed in each well of the 384 well plate. Six identical wells were prepared in each plate for a given treatment. […] Determination of the percentage coefficient of variation (CV) (% C.V.=[standard deviation/average]*100) allowed the omitting of wells whose value was an outlier (so that % C.V.<25). Relative abundance (aka relative expression) of a gene was determined by dividing the mean copy number of that gene with its GAPDH counterpart in that particular sample.
Calu-1 or NHBE cell were treated as above in Example 2 and used for the measurement of endosomal TLR3 mediated immunostimulation, with the inclusion of polyI:C as a positive control for OAS1 mRNA upregulation. For the measurement of membrane bound TLR3 mediated immunostimulation the Calu 1 cells were cultured at 12000 cells/per 96 well and siNAs administered in PBS in the absence of a delivery vehicle at a concentration of 100 nM, 30 nM, 10 nM, 3 nM, 1 nM, and 0.3 nM.
The endosomal TLR3 mediated immunostimulation was also measured by recording the percent increase in OAS1 mRNA levels when the NHBE cells were transfected with the siNAs that had been formulated with the delivery vehicle (the Gemini surfactant GSC170 Dab—example 37 in WO03/82809) (percent increase in OAS1 mRNA levels relative to the Gemini delivery vehicle control). The TLR3 agonist Poly I: C is used as a positive control for OAS1 mRNA induction.

| Substance | ICAM-1 Protein % KD 24 h, 10 nM (ICAM-1 protein) [%] | ICAM-1 Protein % KD 48 h, 10 nM (ICAM-1 protein) [%] | ICAM-1 Protein % KD 72 h, 10 nM (ICAM-1 protein) [%] | Endosomal TLR3 mediated Immunostimulation OAS1 mRNA increase NHBE cells n = 3donors (OAS1 mRNA) |
| --- | --- | --- | --- | --- |
| 48722-DC: siNA duplex, ICAM-1 target site 2240 (h); sense B GAcAuAcAAcuGGGAAAuA TTB; antisense UAUuucccAGuuGuAuGucUU (sense GACAUACAACUGGGAAAUATT; antisense UAUUUCCCAGUUGUAUGUCUU; sense: DNA at AGT, 2'-fluoro at CU, [invAb] at 5' end, 3' end, backbone not given here; antisense: sugars from the 5' end rrrfffffmmffmfmfmffmm, backbone not given here) | 71 | 53 | 43 | No significant effect |
| 29282-DC: siNA duplex, ICAM-1 target site 2113 (h); sense B cGcAucuGAucuGuAGucA TTB; antisense UGAcuAcAGAucAGAuGcGUU (sense CGCAUCUGAUCUGUAGUCATT; antisense UGACUACAGAUCAGAUGCGUU; sense: DNA at AGT, 2'-fluoro at CU, [invAb] at 5' end, 3' end, backbone not given here; antisense: sugars from the 5' end rrrffmfmmmffmmmfmfmmm, backbone not given here) | 87 | 64 | 61 | No significant effect |
| 29284-DC: siNA duplex, ICAM-1 target site 1141 (h); sense B cucAGucAGuGuGAccGcA TTB; antisense UGCGGucAcAcuGAcuGAGUU (sense CUCAGUCAGUGUGACCGCATT; antisense UGCGGUCACACUGACUGAGUU; sense: DNA at AGT, 2'-fluoro at CU, [invAb] at 5' end, 3' end, backbone not given here; antisense: sugars from the 5' end rrrmmffmfmffmmffmmmmm, backbone not given here) | 64 | 53 | 44 | No significant effect |
| 29288-DC: siNA duplex, ICAM-1 target site 2046 (h); sense B cAuuGuccucAGucAGAuA TTB; antisense UAUcuGAcuGAGGAcAAuGUU (sense CAUUGUCCUCAGUCAGAUATT; antisense UAUCUGACUGAGGACAAUGUU; sense: DNA at AGT, 2'-fluoro at CU, [invAb] at 5' end, 3' end, backbone not given here; antisense: sugars from the 5' end rrrffmmffmmmmrfmmfmmm, backbone not given here) | 52 | 52 | 47 | No significant effect |
| 29285-DC: siNA duplex, ICAM-1 target site 537 (h); sense B GGAAcAAccGGAAGGuGuA TTB; antisense UACAccuuccGGuuGuuccUU (sense GGAACAACCGGAAGGUGUATT; antisense UACACCUUCCGGUUGUUCCUU; sense: DNA at AGT, 2'-fluoro at CU, [invAb] at 5' end, 3' end, backbone not given here; antisense: sugars from the 5' end rrrmffffffmmffmffffmm, backbone not given here) | 59 | 52 | 36 | No significant effect |
| 29286-DC: siNA duplex, ICAM-1 target site 1838 (h); sense B cGGAAGAucAAGAAAuAcA TTB; antisense UGUAuuucuuGAucuuccGUU (sense CGGAAGAUCAAGAAAUACATT; antisense UGUAUUUCUUGAUCUUCCGUU; sense: DNA at AGT, 2'-fluoro at CU, [invAb] at 5' end, 3' end, backbone not given here; antisense: sugars from the 5' end rrrmffffffmmffffffmmm, backbone not given here) | 59 | 54 | 43 | No significant effect |
